One assay relates to Klebsiella K 10. The assay is described as follows: MIC, test tube series dilution test, Klebsiella K 10. Type of assay: cell-based. As to conditions: 24 hours, 37°C.
In a further assay the test system is E. coli A 261. The assay is described as follows: MIC, test tube series dilution test, E. coli A 261. The class given is cell-based. To be noted: 24 hours, 37°C.
For a further assay, the system named is E. coli 14. Type of assay: cell-based. As to conditions: E. coli 14; 24 hours, 37°C.
The next assay deals with E. coli 183/58. Nature of the assay: MIC, test tube series dilution test, E. coli 183/58. The class given is cell-based. As to conditions: 24 hours, 37°C.
The subject of the next assay is Klebsiella 63. The assay is described as follows: MIC, test tube series dilution test, Klebsiella 63. Type of assay: cell-based. To be noted: Klebsiella 63; 24 hours, 37°C.
A further assay deals with E. coli C 165. Nature of the assay: MIC, test tube series dilution test, E. coli C 165. Type of assay: cell-based. As to conditions: 24 hours, 37°C.
Another assay concerns Proteus morg. 932. Nature of the assay: MIC, test tube series dilution test, Proteus morg. 932. Type of assay: cell-based. To be noted: 24 hours, 37°C.
For another assay, the system named is Psdm. aerug. F 41. Nature of the assay: MIC, test tube series dilution test, Psdm. aerug. F 41. Type of assay: cell-based, Pseudomonas aeruginosa. As to conditions: Psdm. aerug. F 41; 24 hours, 37°C.
Another assay relates to Psdm. aerug. Walter. Nature of the assay: MIC, test tube series dilution test, Psdm. aerug. Walter. To be noted: Psdm. aerug. Walter; 24 hours, 37°C. The class given is cell-based, Pseudomonas aeruginosa.
Another assay relates to Staph. aureus 1756. Nature of the assay: MIC, test tube series dilution test, Staph. aureus 1756. Type of assay: cell-based, Staphylococcus aureus. To be noted: Staph. aureus 1756; 24 hours, 37°C.
The next assay relates to Proteus vulg. 1017. The class given is cell-based, Proteus vulgaris. To be noted: Proteus 1017; 24 hours, 37°C.
The subject of the next assay is Staph. aureus 133. Type of assay: cell-based, Staphylococcus aureus. As to conditions: Staph. aureus 133; 24 hours, 37°C.
The next assay concerns Enterococcus 9790. The assay is described as follows: MIC, test tube series dilution test, Enterococcus 9790. The class given is cell-based. As to conditions: 24 hours, 37°C.

Molecules are shown by their SMILES. A value given as a limit tells only on which side of the number the result lay.

Take `CC1(C)S[C@@H]2[C@H](NC(=O)[C@H](NC(=O)c3ccc(NC(=O)CCN=[N+]=[N-])cc3)c3ccccc3)C(=O)N2[C@H]1C(=O)O` [Example 38]: the MIC in the assay on Klebsiella K 10 is reported as 128 U/ml; against E. coli A 261, > 256 U/ml; with E. coli 14 it was 4 U/ml; in the assay with E. coli 183/58, 16 U/ml; in the assay on Klebsiella 63, 64 U/ml; in the assay on E. coli C 165, 16 U/ml. The MIC against Proteus morg. 932 is listed as ~ 256 U/ml; in the assay on Psdm. aerug. F 41, 32 U/ml; in the assay on Psdm. aerug. Walter, 32 U/ml; in the assay on Staph. aureus 1756, 32 U/ml; in the assay on Proteus vulg. 1017 it was 32 U/ml; with Staph. aureus 133, < 1 U/ml. Also, in the assay with Enterococcus 9790, the MIC is given as ~ 16 U/ml.
As to `CC1(C)S[C@@H]2[C@H](NC(=O)[C@H](NC(=O)c3ccc(NC(=O)c4ccccc4)cc3)c3ccccc3)C(=O)N2[C@H]1C(=O)O` [Example 25], the MIC with Klebsiella K 10 was 64 U/ml; with E. coli A 261 it was > 256 U/ml; with E. coli 14, 8 U/ml; with E. coli 183/58 it was 8 U/ml; against Klebsiella 63, 32 U/ml; with E. coli C 165 it was 16 U/ml. Besides, the MIC was 16 U/ml in the assay on Proteus morg. 932; 16 U/ml against Psdm. aerug. F 41; 32 U/ml in the assay on Psdm. aerug. Walter; 64 U/ml in the assay with Staph. aureus 1756; 128 U/ml with Proteus vulg. 1017; < 1 U/ml in the assay on Staph. aureus 133. The MIC against Enterococcus 9790 is recorded as 8 U/ml.
Turning to `CC1(C)S[C@@H]2[C@H](NC(=O)[C@H](NC(=O)c3ccc(NC(=O)Nc4ccccc4)cc3)c3ccccc3)C(=O)N2[C@H]1C(=O)O` [Example 45], the MIC against Klebsiella K 10 is 32 U/ml; in the assay with E. coli A 261, > 256 U/ml; in the assay on E. coli 14, < 1 U/ml; in the assay with E. coli 183/58, 4 U/ml; with Klebsiella 63 it was 16 U/ml; with E. coli C 165, 8 U/ml. In addition, the MIC is 128 U/ml against Proteus morg. 932; 8 U/ml in the assay on Psdm. aerug. F 41; 16 U/ml with Psdm. aerug. Walter; 16 U/ml in the assay on Staph. aureus 1756; 16 U/ml against Proteus vulg. 1017; < 1 U/ml with Staph. aureus 133. For the same compound, the MIC in the assay with Enterococcus 9790 is < 1 U/ml.
Regarding `CC1(C)S[C@@H]2[C@H](NC(=O)[C@H](NC(=O)c3ccc(NC(=O)C4CCC=CCC4)cc3)c3ccccc3)C(=O)N2[C@H]1C(=O)O` [Example 14, sodium D(-)-α-[4-(4-cycloheptene-1-carbonylamino-benzoylamino)]-benzylpenicillin], the MIC was 32 U/ml with Klebsiella K 10; > 256 U/ml against E. coli A 261; < 1 U/ml in the assay on E. coli 14; 16 U/ml in the assay on E. coli 183/58; 32 U/ml in the assay with Klebsiella 63; ~ 8 U/ml against E. coli C 165. The MIC against Proteus morg. 932 was 256 U/ml; in the assay with Psdm. aerug. F 41 it was 32 U/ml; against Psdm. aerug. Walter, 32 U/ml; against Staph. aureus 1756, 32 U/ml; against Proteus vulg. 1017 it was 16 U/ml; in the assay with Staph. aureus 133, < 1 U/ml. In the assay with Enterococcus 9790, this compound showed an MIC of 8 U/ml.
Consider `CC1(C)S[C@@H]2[C@H](NC(=O)[C@H](NC(=O)c3ccc(NC(=O)C=Cc4ccccc4)cc3)c3ccccc3)C(=O)N2[C@H]1C(=O)O` [Example 35], for which the MIC in the assay on Klebsiella K 10 is recorded as 16 U/ml; in the assay on E. coli A 261, > 256 U/ml; in the assay with E. coli 14 it was < 1 U/ml; against E. coli 183/58 it was < 1 U/ml; against Klebsiella 63 it was 8 U/ml; against E. coli C 165 it was 4 U/ml. Moreover, the MIC against Proteus morg. 932 is given as 128 U/ml; in the assay on Psdm. aerug. F 41 it was 4 U/ml; against Psdm. aerug. Walter, 4 U/ml; in the assay with Staph. aureus 1756 it was 8 U/ml; against Proteus vulg. 1017, ~ 1 U/ml; against Staph. aureus 133, < 1 U/ml. For the same compound, the MIC with Enterococcus 9790 was ~ 4 U/ml.
For `CC1(C)S[C@@H]2[C@H](NC(=O)[C@H](NC(=O)CNC(=O)c3ccc(NC(=O)C4CCCC4)cc3)c3ccccc3)C(=O)N2[C@H]1C(=O)O` [Example 66], the MIC is recorded as 64 U/ml against Klebsiella K 10; > 256 U/ml in the assay with E. coli A 261; 8 U/ml against E. coli 14; 64 U/ml against E. coli 183/58; 32 U/ml in the assay on Klebsiella 63; 32 U/ml in the assay with E. coli C 165. The MIC is on record as > 256 U/ml in the assay with Proteus morg. 932; 64 U/ml against Psdm. aerug. F 41; 128 U/ml against Psdm. aerug. Walter; 32 U/ml against Staph. aureus 1756; 32 U/ml against Proteus vulg. 1017; < 1 U/ml against Staph. aureus 133. This compound also registered an MIC in the assay with Enterococcus 9790 of 32 U/ml.
`CC1(C)S[C@@H]2[C@H](NC(=O)[C@H](NC(=O)c3ccc(NC(=O)c4ccc([N+](=O)[O-])cc4)cc3)c3ccccc3)C(=O)N2[C@H]1C(=O)O` [Example 28, sodium D(-)-α-[4-(4-nitrobenzoylamino)-benzoylamino]-benzylpenicillin]: the MIC is on record as 16 U/ml against Klebsiella K 10; > 256 U/ml against E. coli A 261; < 1 U/ml in the assay on E. coli 14; 4 U/ml in the assay on E. coli 183/58; 16 U/ml in the assay on Klebsiella 63; 4 U/ml against E. coli C 165. Also, the MIC is 128 U/ml against Proteus morg. 932; 16 U/ml against Psdm. aerug. F 41; 16 U/ml against Psdm. aerug. Walter; ~ 32 U/ml with Staph. aureus 1756; 16 U/ml in the assay with Proteus vulg. 1017; < 1 U/ml in the assay with Staph. aureus 133. Further, in the assay with Enterococcus 9790, the MIC stood at 4 U/ml.
Consider `CC1(C)S[C@@H]2[C@H](NC(=O)[C@H](N)c3ccccc3)C(=O)N2[C@H]1C(=O)O` [Ampicillin, D(-)-α-aminobenzylpenicillin, reference compound], for which the MIC is recorded as 128 U/ml against Klebsiella K 10; 8 U/ml against E. coli A 261; > 1 U/ml in the assay on E. coli 14; 200 U/ml against E. coli 183/58; 128 U/ml in the assay with Klebsiella 63; 8 U/ml against E. coli C 165. In addition, the MIC is reported as 256 U/ml with Proteus morg. 932; > 256 U/ml in the assay with Psdm. aerug. F 41; > 256 U/ml against Psdm. aerug. Walter; 256 U/ml in the assay on Staph. aureus 1756; 256 U/ml against Proteus vulg. 1017; < 1 U/ml with Staph. aureus 133. Moreover, the MIC against Enterococcus 9790 was 4 U/ml.
Take `CC1(C)S[C@@H]2[C@H](NC(=O)[C@H](NC(=O)c3ccc(NC(N)=O)cc3)c3ccccc3)C(=O)N2[C@H]1C(=O)O` [Example 30, sodium D(-)-α-(4-carbamoylaminobenzoylamino)-benzylpenicillin]: the MIC is recorded as > 256 U/ml in the assay with Klebsiella K 10; > 256 U/ml against E. coli A 261; ~ 32 U/ml with E. coli 14; 256 U/ml against E. coli 183/58; 256 U/ml with Klebsiella 63; 32 U/ml against E. coli C 165. The MIC was > 256 U/ml against Proteus morg. 932; 128 U/ml in the assay on Psdm. aerug. F 41; > 256 U/ml against Psdm. aerug. Walter; 64 U/ml against Staph. aureus 1756; > 256 U/ml against Proteus vulg. 1017; < 1 U/ml against Staph. aureus 133. Moreover, the MIC in the assay on Enterococcus 9790 came out at 8 U/ml.
Turning to `CC1(C)S[C@@H]2[C@H](NC(=O)[C@H](NC(=O)c3ccc(NC(=O)c4ccc(N=[N+]=[N-])cc4)cc3)c3ccccc3)C(=O)N2[C@H]1C(=O)O` [Example 26], the MIC is recorded as 16 U/ml in the assay with Klebsiella K 10; 256 U/ml with E. coli A 261; < 1 U/ml in the assay with E. coli 14; < 1 U/ml in the assay on E. coli 183/58; 4 U/ml with Klebsiella 63; 4 U/ml in the assay on E. coli C 165. The MIC is reported as 8 U/ml in the assay on Proteus morg. 932; 16 U/ml in the assay on Psdm. aerug. F 41; 16 U/ml against Psdm. aerug. Walter; 64 U/ml against Staph. aureus 1756; 16 U/ml in the assay on Proteus vulg. 1017; < 1 U/ml in the assay with Staph. aureus 133. Moreover, the MIC with Enterococcus 9790 is 16 U/ml.
For the compound `COc1ccc(C(=O)Nc2ccc(C(=O)N[C@@H](C(=O)N[C@@H]3C(=O)N4[C@@H]3SC(C)(C)[C@@H]4C(=O)O)c3ccccc3)cc2)cc1` [Example 16], the MIC is listed as 32 U/ml against Klebsiella K 10; > 256 U/ml in the assay with E. coli A 261; ~ 1 U/ml in the assay with E. coli 14; 8 U/ml against E. coli 183/58; 16 U/ml against Klebsiella 63; 8 U/ml against E. coli C 165. In addition, the MIC against Proteus morg. 932 was 256 U/ml; in the assay with Psdm. aerug. F 41 it was 16 U/ml; in the assay on Psdm. aerug. Walter, 16 U/ml; in the assay on Staph. aureus 1756, 64 U/ml; against Proteus vulg. 1017, 64 U/ml; in the assay on Staph. aureus 133, < 1 U/ml. In the assay with Enterococcus 9790, this compound registered an MIC of 8 U/ml.
Turning to `CC1(C)S[C@@H]2[C@H](NC(=O)[C@H](NC(=O)c3ccc(NC(=O)c4ccc(F)cc4)cc3)c3ccccc3)C(=O)N2[C@H]1C(=O)O` [Example 17], the MIC in the assay on Klebsiella K 10 is 64 U/ml; against E. coli A 261, > 256 U/ml; in the assay on E. coli 14 it was 4 U/ml; against E. coli 183/58, 8 U/ml; in the assay on Klebsiella 63, 32 U/ml; against E. coli C 165, ~ 8 U/ml. The MIC is recorded as 128 U/ml against Proteus morg. 932; 32 U/ml against Psdm. aerug. F 41; 32 U/ml in the assay on Psdm. aerug. Walter; 32 U/ml in the assay on Staph. aureus 1756; ~ 32 U/ml against Proteus vulg. 1017; < 1 U/ml with Staph. aureus 133. The same compound came in with an MIC against Enterococcus 9790 of 16 U/ml.

(Values after patent publication US4001218A, “Penicillins” (Bayer Aktiengesellschaft, priority 1972, dated 1977).)
